US20230119002A1, “COMPOSITIONS AND METHODS CONTAINING REDUCED NICOTINAMIDE RIBOSIDE FOR PREVENTION AND TREATMENT OF CARDIOVASCULAR DISEASES AND CONDITIONS” (SOCIETE DES PRODUITS NESTLE S.A., priority 2020, published 2023)
Structures can show the parent of a compound that is named as a salt. Blank lines part the entries; values can stand above or below the compound they belong to.

Experiments:
[1] = Stability in isolated mouse plasma; format: in vitro ADME
Source text: (§1) Levels of NRH and other NAD-related metabolites in biological samples were obtained by using a cold liquid-liquid extraction using a mixture of methanol:water:chloroform in 5:3:5 (v/v), from which the polar phase was recovered for hydrophilic interaction ultra-high performance liquid chromatography mass spectrometry (UHPLC-MS) analysis. The UHPLC consisted of a binary pump, a cooled autosampler, and a column oven (DIONEX Ultimate 3000 UHPLC+ Focused, Thermo Scientific), connected to a triple quadrupole spectrometer (TSQ Vantage, Thermo Scientific) equipped with a heated electrospray ionisation (H-ESI) source. Of each sample, 2 μL were injected into the analytical column (2.1 mm×150 mm, 5 μm pore size, 200 Å HILICON iHILIC®-Fusion(P)), guarded by a pre-column (2.1 mm×20 mm, 200 Å HILICON iHILIC®-Fusion(P) Guard Kit) operating at 35° C. The mobile phase (10 mM ammonium acetate at pH 9, A, and acetonitrile, B) was pumped at 0.25 mL/min flow rate over a linear gradient of decreasing organic solvent (0.5-16 min, 90-25% B), followed by re-equilibration for a total run time of 30 min. The MS operated in positive mode at 3500 V with multiple reaction monitoring (MRM). The software Xcalibur v4.1.31.9 (Thermo Scientific) was used for instrument control, data acquisition and processing. Retention time and mass detection was confirmed by authentic standards.
(§2) NR degradation to NAM has been proposed as a limitation for its pharmacological efficacy. To evaluate whether NRH was also susceptible to degradation to NAM, we spiked NRH or NR in isolated mouse plasma. […] We also tested the stability of NRH in other matrixes. […] Finally, we also certified NRH stability in water (pH=7, at room temperature) for 48 h.

[2] = Stability in FBS supplemented media; format: in vitro ADME
Procedure: as §2

[3] = Tissue NAD+ and circulating metabolites after IP injection in mice; format: in vivo; conditions: for NAD+ levels in liver, muscle and kidney: after 1 h
Source text: as §1
The above results prompted us to test whether NRH could act as an effective NAD+ precursor in vivo. For this, we first intraperitoneally (IP) injected mice with either NR or NRH (500 mg/kg). […] Importantly, NRH was detectable in circulation after IP injection.

[4] = format: in vivo, mice
Procedure: 8 week-old C57BI/6NTac mice were orally gavaged with either saline (as vehicle), NR (500 mg/kg) or NRH (500 mg/kg). After 1 hour, liver, skeletal muscle and kidney NAD^+ levels were evaluated. All results are expressed as mean+/−SEM of n=5 mice per group. * indicates statistical difference at p<0.05 vs. vs. saline-treated mice. # indicates statistical difference at p<0.05 vs. NR treated mice.
as §1
Oral administration of NRH led to very similar results to those observed after IP administration. […] NRH was detectable in plasma 1 h after oral administration. In contrast, NR levels were undetectable at 1 h after NR administration.

[5] = test system: NRK1; experiment: NAD+ levels in primary hepatocytes from control or NRK1 knockout mice; conditions: 1 hour of treatment, NRK1 knockout mouse hepatocytes
[6] = test system: AML12 hepatocytes; experiment: Intracellular NAD+ levels in AML12 hepatocytes after NRH or NR treatment; format: cell-based
Source text: as §1
Even at such relatively low dose, NRH achieved similar increases in intracellular NAD+ levels to those reached with NR at 50-fold higher concentrations.
NRH actions were also extremely fast (FIG. 3), as significant increases in NAD+ levels were observed within 5 minutes after NRH treatment.

[7] = test system: C2C12 myotubes; experiment: NAD+ levels in C2C12 myotubes after NRH treatment; format: cell-based
Procedure: (§3) The ability of NRH to potently increase NAD+ was tested as well in other cell type models.

[8] = test system: INS1-cells; experiment: NAD+ levels in INS1-cells after NRH treatment; format: cell-based
Procedure: as §3

[9] = test system: 3T3 fibroblasts; experiment: NAD+ levels in 3T3 fibroblasts after NRH treatment; format: cell-based
Procedure: as §3

[10] = test system: equilibrative nucleoside transporters (ENTs); experiment: NRH-induced NAD+ synthesis with ENT-mediated transport blocked by NBTI; format: cell-based; conditions: in the presence of NBTI (ENT blocker)
Source text: In order to understand the exact path by which NRH synthesizes NAD+, we initially evaluated whether NRH, could be transported into the cell by equilibrative nucleoside transporters (ENTs).

[11] = target: T1, NAMPT (Mus musculus, UniProt Q99KQ4); experiment: NRH-induced NAD+ synthesis with NAMPT inhibitor FK866; format: cell-based
T1 construct: endogenous in cells; AML12 inferred
T1 sequence (Q99KQ4 whole entry): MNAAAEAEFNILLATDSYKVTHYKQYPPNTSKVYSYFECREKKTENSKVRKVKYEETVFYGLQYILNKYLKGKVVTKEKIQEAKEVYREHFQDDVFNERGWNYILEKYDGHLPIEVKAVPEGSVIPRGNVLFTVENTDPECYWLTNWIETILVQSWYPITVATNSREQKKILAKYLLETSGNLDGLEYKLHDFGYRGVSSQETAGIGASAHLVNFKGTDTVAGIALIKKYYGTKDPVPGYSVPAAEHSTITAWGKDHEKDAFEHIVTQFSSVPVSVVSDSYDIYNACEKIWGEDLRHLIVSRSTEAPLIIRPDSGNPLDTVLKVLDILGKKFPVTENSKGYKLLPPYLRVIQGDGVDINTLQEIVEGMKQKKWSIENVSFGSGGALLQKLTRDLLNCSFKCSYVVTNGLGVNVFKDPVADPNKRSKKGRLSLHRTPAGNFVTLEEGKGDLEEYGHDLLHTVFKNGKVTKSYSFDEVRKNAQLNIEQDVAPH

[12] = target: T2, adenosine kinase (AK) (Mus musculus, UniProt P55264); experiment: NRH-induced NAD+ synthesis with adenosine kinase inhibitors; format: cell-based
T2 construct: endogenous in cells; host or cells: AML12 cells
T2 sequence (P55264 whole entry): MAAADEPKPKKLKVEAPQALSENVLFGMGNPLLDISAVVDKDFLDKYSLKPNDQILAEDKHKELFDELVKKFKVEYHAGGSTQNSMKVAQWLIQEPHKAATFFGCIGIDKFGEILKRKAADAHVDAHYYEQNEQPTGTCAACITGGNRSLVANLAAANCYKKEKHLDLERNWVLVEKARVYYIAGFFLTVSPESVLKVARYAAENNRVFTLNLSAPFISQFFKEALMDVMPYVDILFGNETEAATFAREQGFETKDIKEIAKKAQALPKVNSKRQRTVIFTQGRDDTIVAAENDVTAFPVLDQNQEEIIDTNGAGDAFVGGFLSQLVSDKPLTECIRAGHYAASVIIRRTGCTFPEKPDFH
Procedure: AML12 cells were treated with an adenosine kinase inhibitor (5-IT; […]) for 1 hour prior to NRH treatment at the doses indicated. Then, 1 hour later, acidic extracts were obtained to measure NAD^+ levels. All values in the figure are expressed as mean+/−SEM of 3 independent experiments. * indicates statistical difference at p<0.05 vs. the respective vehicle treated group.
Considering the molecular structure of NRH, we reasoned that an alternative nucleoside kinase could be responsible for the phosphorylation of NRH. Confirming this expectation, the adenosine kinase (AK) inhibitor 5-iodotubercidin (5-IT) fully ablated the action of NRH. The role of AK in NRH-mediated NAD+ synthesis was confirmed using a second, structurally different, AK inhibitor, ABT-702. Metabolomic analyses further confirmed that upon inhibition of AK, the generation of NMNH, NADH and NAD+ was fully blunted, even if NRH was effectively entering the cell.

[13] = test system: NMNAT; experiment: NRH-induced NAD+ synthesis with NMNAT inhibitor gallotannin; format: cell-based
Source text: As a follow-up step, NMNAT enzymes could catalyze the transition from NMNH to NADH. […] Yet, part of the NRH action remained after gallotannin treatment when NRH was used at maximal doses.

[14] = test system: zebrafish embryos; experiment: Doxorubicin-induced toxicity in zebrafish larvae; format: in vivo; conditions: Doxorubicin 25 uM with NRH 500 uM, up to 60 h
Procedure: 1 day post fertilization zebrafish embryos were placed in 24 well plates and treated with Doxorubicin (25 uM), either alone or in combination with NRH (500 uM). Untreated group was exposed to DMSO (0.05%). Health of the larvae was monitored frequently, and dead larvae were scored overtime, up to 60 h treatment. Results are expressed as percent of survival of n=60 embryos per group. Statistics represented were calculated by pairwise comparison using log-rank test and p-value adjustment was performed by Bonferroni correction. p-Value for median survival of untreated vs Doxorubicin <0.0001, p-value Doxorubicin vs Doxorubicin+NRH <0.0001.
Doxorubicin is a chemotherapeutic agent that is well established to be cardiotoxic. This drug has also been described to induce cardiomyopathy in zebrafish larvae. 1 day post fertilization zebrafish embryos were placed in 24 well plates and treated with Doxorubicin (25 uM), either alone or in combination with NRH (500 uM). Untreated group was exposed to DMSO (0.05%). Health of the larvae was monitored frequently, and dead larvae were scored overtime, up to 60 h treatment. Results are expressed as percent of survival of n=60 embryos per group.

[15] = test system: zebrafish larvae; experiment: Ethanol-induced cardiac edema in zebrafish larvae; format: in vivo; conditions: 2% Ethanol during 20 h, NRH 500 uM co-treatment, 3 days post fertilization
Procedure: Phenotypic scoring of cardiac edema severity in zebrafish larvae at 3 days post fertilization exposed to 2% Ethanol during 20 h with or without NRH (500 uM) co-treatment (untreated, n=60; Ethanol, n=73; Ethanol +NRH, n=72). Statistics represented were calculated by non-parametric Chi-square test without p-value adjustment. **** p-Value<0.0001, * p-Value=0.0275.
Phenotypic scoring of cardiac edema severity in zebrafish larvae at 3 days post fertilization exposed to 2% Ethanol during 20 h with or without NRH (500 uM) co-treatment (untreated, n=60; Ethanol, n=73; Ethanol+NRH, n=72). This indicates NRH protects against ethanol-induced cardiac edema in Zebrafish.

[16] = test system: H9C2 cardiomyocytes; experiment: Oxidative stress-induced cardiomyocyte cell death; format: cell-based; conditions: H2O2 0.25 mM or 0.5 mM for 24 hours, NRH 0.1 mM
Procedure: H9C2 cardiomyocytes were differentiated for 6 days and then were treated with hydrogen peroxide (H2O2; at either 0.25 mM or 0.5 mM) for 24 hrs in the presence or absence of NRH (0.1 mM). PBS was used as vehicle for NRH. After 24 hrs, cell viability was evaluated by lumiscence using a commercial kit (Cell Title-Glow; Promega). All results are expressed as meand+/−SEM of n=6 experiments. * indicates P<0.05 vs. the respective vehicle treated group.
H9C2 cardiomyocytes were differentiated for 6 days and then were treated with hydrogen peroxide (H2O2; at either 0.25 mM or 0.5 mM) for 24 hours in the presence or absence of NRH (0.1 mM). PBS was used as vehicle for NRH. After 24 hours, cell viability was evaluated by lumiscence using a commercial kit (Cell Title-Glow; Promega).

compound levels in isolated mouse plasma ([1]; spiked, 2 h of incubation): decayed
generation of NAM in isolated mouse plasma ([1]; spiked, 2 h of incubation): increase in NAM
degradation to NAM in FBS supplemented media [2]: occurs
NAM levels in circulation ([3]; mice, IP 500 mg/kg): highly increased
circulating NAM after NR relative to after NRH treatment ([4]; C57BI/6NTac, mouse, in vivo, po, 1 h): ~4 fold
administered compound in plasma ([4]; mouse, in vivo, po): undetectable
circulating NAM ([4]; mouse, in vivo, po): large increases
NAD+ levels in NRK1KO derived primary hepatocytes [5]: failed to increase NAD+ levels
SMILES: NC(=O)c1ccc[n+]([C@@H]2O[C@H](CO)[C@@H](O)[C@H]2O)c1 [NR, 1-b-D-ribofuranosyl-3-pyridinecarboxamide salt, reference compound]
NAD+ levels in liver, muscle and kidney ([3]; mice, IP 500 mg/kg): increased

SMILES: NC(=O)C1=CN([C@@H]2O[C@H](CO)[C@@H](O)[C@H]2O)C=CC1 [NRH]
intracellular NRH and NMNH ([6]; 5 minutes after treatment): could be detected
concentration of maximal effects on NAD+ synthesis ([6]; AML12 hepatocytes): around the millimolar range
time to significant increase in NAD+ levels after treatment ([6]; AML12 hepatocytes (FIG. 3)): ≤ 5 min
NR concentration needed for similar increase in intracellular NAD+, relative to NRH ([6]; AML12 hepatocytes, NRH at 10 μM): 50 fold
increase of intracellular NAD+ levels at maximal effect ([6]; AML12 hepatocytes, around the millimolar range): more than 10 fold
ability to increase intracellular NAD+ ([6]; AML12 hepatocytes, compared with NR): superior to that of NR
concentration at which NAD+ levels were significantly increased ([6]; AML12 hepatocytes, dose-response (FIG. 2)): 10 µM
increase in intracellular NR and NMN ([6]; after NRH treatment, compared with NR treatment): greater than that triggered by NR itself
NAD+ levels [7]: highly elevated
NAD+ levels [8]: highly elevated
NAD+ levels [9]: highly elevated
capacity as extracellular NAD+ precursor [10]: largely lost its capacity
dependence of action on NAMPT [11]: NAMPT-independent
formation of NR and NMN after NRH treatment with 5-IT ([12]; 5-IT treatment): prevented the formation of NR and NMN
action of NRH on NAD+ with 5-iodotubercidin (5-IT) ([12]; AML12 cells, 5-IT 10 mM for 1 hour prior to NRH, NAD+ 1 hour later): fully ablated
generation of NMNH, NADH and NAD+ upon inhibition of AK ([12]; metabolomic analyses): fully blunted
role of AK in NRH-mediated NAD+ synthesis with ABT-702 ([12]; second, structurally different AK inhibitor): confirmed
NAD+ synthesis after NRH treatment with gallotannin ([13]; NMNAT inhibitor gallotannin, part of action remained at maximal doses (0.5 mM)): largely compromised
NRH action with gallotannin at submaximal doses ([13]; submaximal NRH doses): totally blocked
NR production on incubation in isolated plasma [1]: did not lead to NR production
degradation to NAM in FBS supplemented media [2]: did not degrade to NAM
NAD+ levels in liver, muscle and kidney ([3]; mice, IP 500 mg/kg): increased
NAM levels in circulation ([3]; mouse, in vivo, ip, 500 mg/kg): only a very mild increase
NR in circulation after NRH treatment versus after NR injection ([3]; mouse, in vivo, ip, 500 mg/kg): much higher levels
NRH in circulation ([3]; mouse, in vivo, ip, 500 mg/kg): detectable
effect on hepatic NAD+ levels ([4]; mice, oral administration, compared with NR): more potent effect
NRH concentration in plasma ([4]; mouse, in vivo, po): 11.16 ± 1.74 µM
administered compound in plasma ([4]; mouse, in vivo, po): detectable
survival under doxorubicin induced toxicity [14]: rescues
cardiac edema severity (phenotypic scoring) [15]: protects
cell viability under oxidative stress [16]: protects
